Legend:
[1] = organism: Rattus norvegicus; assay: The compound was tested for percent increase in heart rate with respect to that measured after isoprenaline in 5-10 animals and showing significant increase (p <= 0.05) with respect to baseline values (293 +/- 7 to 310 +/- 5 […]).; format: functional
[2] = target: T1, Adrenergic receptor alpha-1 (Rattus norvegicus, UniProt P15823+P23944+P43140); assay: Inhibition of alpha-1 adrenergic receptor isolated from rat ventricle homogenates
T1 sequence (P15823 whole entry): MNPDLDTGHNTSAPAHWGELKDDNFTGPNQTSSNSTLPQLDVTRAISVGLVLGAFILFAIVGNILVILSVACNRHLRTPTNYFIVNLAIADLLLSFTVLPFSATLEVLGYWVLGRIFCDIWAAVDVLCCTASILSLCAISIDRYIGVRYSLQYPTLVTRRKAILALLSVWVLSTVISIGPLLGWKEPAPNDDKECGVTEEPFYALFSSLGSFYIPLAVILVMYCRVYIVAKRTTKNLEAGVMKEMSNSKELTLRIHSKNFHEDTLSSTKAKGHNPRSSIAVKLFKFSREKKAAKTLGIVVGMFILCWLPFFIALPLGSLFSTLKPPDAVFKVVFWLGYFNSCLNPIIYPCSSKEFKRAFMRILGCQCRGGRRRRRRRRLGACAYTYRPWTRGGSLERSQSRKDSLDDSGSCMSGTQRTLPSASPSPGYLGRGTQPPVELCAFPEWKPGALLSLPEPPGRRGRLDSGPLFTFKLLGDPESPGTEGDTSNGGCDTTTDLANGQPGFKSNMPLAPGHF
T1 sequence (P23944 whole entry): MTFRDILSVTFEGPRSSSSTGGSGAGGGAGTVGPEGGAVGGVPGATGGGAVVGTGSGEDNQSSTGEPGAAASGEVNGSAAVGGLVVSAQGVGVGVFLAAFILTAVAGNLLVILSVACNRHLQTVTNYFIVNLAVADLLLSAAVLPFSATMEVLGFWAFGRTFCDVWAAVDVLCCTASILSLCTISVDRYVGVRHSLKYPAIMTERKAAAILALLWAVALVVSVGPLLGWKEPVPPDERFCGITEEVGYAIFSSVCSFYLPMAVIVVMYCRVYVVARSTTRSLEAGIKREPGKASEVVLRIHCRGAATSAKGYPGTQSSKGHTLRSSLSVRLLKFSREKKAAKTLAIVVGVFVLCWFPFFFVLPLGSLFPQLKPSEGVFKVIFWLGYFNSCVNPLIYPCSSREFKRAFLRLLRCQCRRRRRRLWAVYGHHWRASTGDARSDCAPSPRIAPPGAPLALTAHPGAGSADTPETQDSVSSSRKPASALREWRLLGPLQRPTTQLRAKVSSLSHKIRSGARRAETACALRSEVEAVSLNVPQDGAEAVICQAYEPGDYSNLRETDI
T1 sequence (P43140 whole entry): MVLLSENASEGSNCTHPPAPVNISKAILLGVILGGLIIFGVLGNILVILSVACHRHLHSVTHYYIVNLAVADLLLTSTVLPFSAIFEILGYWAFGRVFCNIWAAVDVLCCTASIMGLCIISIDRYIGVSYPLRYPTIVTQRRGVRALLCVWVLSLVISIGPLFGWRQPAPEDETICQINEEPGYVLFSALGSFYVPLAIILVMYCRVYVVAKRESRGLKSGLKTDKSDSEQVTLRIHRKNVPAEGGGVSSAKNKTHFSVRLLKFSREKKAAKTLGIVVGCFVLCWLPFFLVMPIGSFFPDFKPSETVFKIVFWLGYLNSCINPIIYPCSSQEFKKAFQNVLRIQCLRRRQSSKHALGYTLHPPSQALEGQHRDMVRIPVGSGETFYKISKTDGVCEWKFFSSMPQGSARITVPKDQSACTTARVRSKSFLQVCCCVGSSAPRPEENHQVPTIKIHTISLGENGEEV

[3] = target: Adrenergic receptor beta (Rattus norvegicus) (UniProt P18090+P10608+P26255)
Description: In vitro inhibitory specificity for Beta adrenergic receptor was evaluated

[4] = organism: Cavia porcellus; assay: Chronotropic effect studied in right atria isolated from guinea pig and is expressed in pA2.; conditions: read-out: pA2 (converted)
[5] = system: Rattus norvegicus; assay: Tested for MED (smallest dose giving maximum effect) evaluated by dose-response curve, from 0.1 to 5 mg/kg in 5-10 animals on iv administration.; format: functional; conditions: dose mg/kg 0.1-5
[6] = organism: Cavia porcellus; assay: Ionotropic effect in electrically driven left atrial preparation (Atria isolated from guinea pig) and is expressed in pA2.; conditions: Cardiac atrium, read-out: pA2 (converted)
[7] = target: Adrenergic receptor beta (Rattus norvegicus, UniProt P18090+P10608+P26255); assay: Inhibition of beta adrenergic receptor isolated from rat ventricle homogenates.
[8] = organism: Rattus norvegicus; assay: The compound was tested for percent increase in heart rate with respect to that measured after isoprenaline in 5-10 animals.; format: functional

SMILES | Increase [1] [%] | IC50 [2] [nM] | Specificity [3] | Kb [4] [nM] | MED [5] [µmol/kg] | Kb [6] [nM] | IC50 [7] [nM] | Increase [8] [%]
OC(CNc1ccc(F)cc1)CON=C(C1CC1)C1CC1 (stereo unspecified) | 74 | 26200 | 2120 | 631 | 2.4 | 1260 | 12.4 | –
CCOC(=O)c1ccc(NCC(O)CON=C(C2CC2)C2CC2)cc1 (stereo unspecified) | – | 95100 | 7430 | 79.4 | 2.4 | 251 | 12.8 | 10
Cc1ccc(NCC(O)CON=C(C2CC2)C2CC2)nc1 (stereo unspecified) | – | – | – | 25100 | – | – | – | –
CCCCc1ccc(NCC(O)CON=C(C2CC2)C2CC2)cc1 (stereo unspecified) | – | 30700 | 4390 | 79.4 | 2.7 | 251 | 7 | 10
CN(CC(O)CON=C(C1CC1)C1CC1)c1ccccc1 (stereo unspecified) | – | – | – | 794000 | – | – | – | –
OC(CNc1ccccc1I)CON=C(C1CC1)C1CC1 (stereo unspecified) | – | 53000 | 490 | 1260 | 5.7 | 2510 | 108 | 10
OC(CNc1nc2ccccc2[nH]1)CON=C(C1CC1)C1CC1 (stereo unspecified) | – | > 100000 | > 7580 | 63.1 | 2 | 100 | 13.2 | 10
OC(CNc1nc2ccccc2s1)CON=C(C1CC1)C1CC1 (stereo unspecified) | – | > 100000 | > 29400 | 15.8 | 4.1 | 25.1 | 3.4 | 10
Cc1ccnc(NCC(O)CON=C(C2CC2)C2CC2)c1 (stereo unspecified) | – | 15300 | 640 | 31.6 | 2.6 | 79.4 | 23.9 | 0
OC(CNc1cccc(I)c1)CON=C(C1CC1)C1CC1 (stereo unspecified) | 42 | > 100000 | > 160 | 5010 | 7.8 | 3160 | 630 | –
OC(CNc1ccc(C(F)(F)F)cc1)CON=C(C1CC1)C1CC1 (stereo unspecified) | 47 | > 100000 | > 7250 | 63.1 | 2.2 | 126 | 13.8 | –
OC(CNc1ccc(Br)cc1)CON=C(C1CC1)C1CC1 (stereo unspecified) | – | 19000 | 4630 | 20 | 2.1 | 100 | 4.1 | 10
OC(CNc1ccc(-c2ccccc2)cc1)CON=C(C1CC1)C1CC1 (stereo unspecified) | 70 | 3100 | 690 | 10 | 1 | 39.8 | 4.5 | –
CC(C)(N)Cc1ccc(NCC(O)CON=C(C2CC2)C2CC2)cc1 (stereo unspecified) | – | – | – | 501 | – | – | – | –
O=C(O)c1ccc(NCC(O)CON=C(C2CC2)C2CC2)cc1 (stereo unspecified) | 65 | 37300 | 3570 | 100 | 2.3 | 631 | 10 | –
Cc1cccc(NCC(O)CON=C(C2CC2)C2CC2)c1 (stereo unspecified) | 42 | > 100000 | > 200 | 100 | 9.2 | 126 | 501 | –
OC(CNc1ccc(Cl)cc1)CON=C(C1CC1)C1CC1 (stereo unspecified) | 47 | 18700 | 1640 | 39.8 | 2.1 | 126 | 11.4 | –
Cc1cccc(NCC(O)CON=C(C2CC2)C2CC2)n1 (stereo unspecified) | – | – | – | 10000 | – | – | – | –
OC(CNc1ccccc1-c1ccccc1)CON=C(C1CC1)C1CC1 (stereo unspecified) | – | > 100000 | > 100 | 100000 | > 12.9 | 25100 | 998 | 0
OC(CNc1ccc(I)cc1)CON=C(C1CC1)C1CC1 (stereo unspecified) | 64 | 27500 | 6700 | 15.8 | 1.6 | 63.1 | 4.1 | –
OC(CNc1ccncc1)CON=C(C1CC1)C1CC1 (stereo unspecified) | – | 72300 | 2240 | 63.1 | 3.7 | 251 | 32.3 | 0
O=[N+]([O-])c1ccc(NCC(O)CON=C(C2CC2)C2CC2)cc1 (stereo unspecified) | – | 19000 | 2400 | 100 | 1.8 | 251 | 7.9 | 10
OC(CNc1ccccc1)CON=C(C1CC1)C1CC1 (stereo unspecified) | – | 13000 | 3940 | 39.8 | 2.7 | 126 | 3.3 | 10
OC(CNc1ccccn1)CON=C(C1CC1)C1CC1 (stereo unspecified) | – | 36400 | 1020 | 79.4 | 4.4 | 63.1 | 35.6 | 0
CC(C)NCC(O)COc1cccc2ccccc12 (stereo unspecified) [PROPRANOLOL] | – | – | – | – | 3 | – | – | 0
